Test results reported in patent publication US6399086B1, “Pharmaceutical preparations for the controlled release of beta-lactam antibiotics” (Yissum Research Development Company of the Hebrew …, priority 1997, dated 2002).

Columns and labels:
[1] = Stability of active agent in the dissolution medium; format: physicochemical; conditions: 37° C.
Method: Determination of Stability of active Agent in the Dissolution Medium
Following 1, 2, 4, 6, 8 and 24 hrs the absorption profile of the drug between 200 nm and 300 nm was determined and compared with the absorption profile of the solutions before storage.

Streptococci group A = conditions: cited from earlier work
Streptococci pneumoniae = conditions: cited from earlier work
Staphylococcus aureus = conditions: cited from earlier work
Haemophilus influenza = conditions: cited from earlier work
Enterococcus faecalis = conditions: cited from earlier work

SMILES: CC1(C)S[C@@H]2[C@H](NC(=O)[C@H](N)c3ccc(O)cc3)C(=O)N2[C@H]1C(=O)O [Amoxicillin, amoxicillin trihydrate]
- Stability in solution ([1]; pH=1.2, after 1hr): deterioration occurred
- Stability in solution ([1]; pH=2, after 6 hrs): stable
- Stability in solution ([1]; pH=6.8, after 24 hrs): stable
- Stability in solution ([1]; pH=7.4, after 24 hrs): stable
- MIC (Streptococci group A): 0.01 µg/mL
- MIC (Streptococci pneumoniae): 0.02 µg/mL
- MIC (Staphylococcus aureus): 0.1 µg/mL
- MIC (Haemophilus influenza): 0.25 µg/mL
- MIC (Enterococcus faecalis): 0.5 µg/mL
